Reference: patent US11229633B2, “Arimoclomol formulation” (Orphazyme A/S, priority 2014, dated 2022)
Entries after “also recorded” stand apart in the source; their conditions may differ.

Molecular target: T1, OATP1B3 (Homo sapiens, UniProt Q9NPD5)
T1 sequence (Q9NPD5 1-702): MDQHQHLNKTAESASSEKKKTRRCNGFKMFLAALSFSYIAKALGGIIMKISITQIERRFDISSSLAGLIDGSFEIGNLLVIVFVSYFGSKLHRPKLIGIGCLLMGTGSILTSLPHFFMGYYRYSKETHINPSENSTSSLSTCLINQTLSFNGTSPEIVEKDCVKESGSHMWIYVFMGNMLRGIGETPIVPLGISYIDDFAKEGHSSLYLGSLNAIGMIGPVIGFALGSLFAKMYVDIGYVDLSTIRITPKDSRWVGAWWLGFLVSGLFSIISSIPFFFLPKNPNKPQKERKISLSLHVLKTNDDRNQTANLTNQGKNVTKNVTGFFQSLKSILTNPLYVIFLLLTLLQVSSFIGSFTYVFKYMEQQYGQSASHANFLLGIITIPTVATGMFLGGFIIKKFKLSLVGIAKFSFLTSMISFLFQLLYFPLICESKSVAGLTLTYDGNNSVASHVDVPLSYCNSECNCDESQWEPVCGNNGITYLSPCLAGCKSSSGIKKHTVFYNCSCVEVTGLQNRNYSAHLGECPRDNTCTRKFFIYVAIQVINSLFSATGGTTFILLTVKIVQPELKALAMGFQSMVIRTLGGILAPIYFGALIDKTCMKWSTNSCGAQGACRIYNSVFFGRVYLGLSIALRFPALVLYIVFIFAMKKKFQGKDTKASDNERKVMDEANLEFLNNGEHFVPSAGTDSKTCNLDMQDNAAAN
Test: Uptake transporter inhibition assay, OATP1B3
Type: in vitro ADME
Design: expressed in transfected cells; host or cells: CHO (protocol UPT-CHO-OATP1B3-Fluo3; control: parental CHO-K1; 5 mM Na+ butyrate induction); key to maximum inhibition: NIO: No interaction observed
Details: for maximum inhibition: 0.3-300 μM
Experimental: Uptake experiments were performed using CHO, MDCKII, or HEK293 cells stably expressing the respective uptake transporters.
Cells were cultured at 37±1° C. in an atmosphere of 95:5 air:CO2 and were plated onto standard 96-well tissue culture plates at the cell number described in table 4.
Before the experiment, the medium was removed and the cells were washed twice with 100 μl of HK buffer at pH 7.4 (prepared from Sigma chemicals, Sigma-Aldrich, St Louis, Mo.). Uptake experiments were carried out at 37±1° C. in 50 μl of HK buffer (pH 7.4) containing the probe substrate and the TA or vehicle control (water).
After the experiment, cells were washed twice with ice cold, 100 μl of HK buffer and lysed with 50 μl of 0.1 M NaOH (1 mM CaCl2) in 5% SDS in the case of OATP1B3). Fluo-3 transport (OATP1B3) was determined by measuring fluorescence using 485 nm and 520 nm as the excitation and emission wavelengths, respectively. Radiolabelled probe substrate transport was determined by measuring an aliquot (35 μl) from each well for liquid scintillation counting.
Uptake of the probe substrate in control cells provided background activity values for all data points. Incubation without TA or reference inhibitor (solvent only) provided 100% activity values. A reference inhibitor served as positive control for inhibition.
The amount of translocated probe substrate was determined for each well in cpm or RFU. Relative activities were calculated from the equation:
[formula] A: amount of translocated substrate in the presence of TA in transfected cells B: amount of translocated substrate in the presence of TA in control cells C: amount of translocated substrate in the presence of solvent in transfected cells D: amount of translocated substrate in the presence of solvent in control cells Calculation of Fold Accumulation Values
In uptake transporter inhibition assays, the IC50 (μM) was calculated, where applicable. […]

For `[O-][n+]1cccc(C(Cl)=NOCC(O)CN2CCCCC2)c1` (stereo not drawn) [Arimoclomol, N-[2-hydroxy-3-(1-piperidinyl)-propoxy]-pyridine-1-oxide-3-carboximidoyl chloride], the maximum inhibition (Table 2) was “NIO”, the maximum inhibition (Table 5) was “NIO” and the “Influence on OATP1B3-mediated probe substrate accumulation (in words)” value (applied concentrations) was “did not influence; also recorded: not an inhibitor”.
